How the values were obtained:
Format in all cases: cell-based
[1] = tested on: PC3 (prostate cancer), A549 (lung cancer), CLR2119 and PAN02 (pancreatic cancer); test: Crystal violet staining, four cancer cell lines; conditions: range over four cell lines, 72 hours, 0.01-10 μM; highest efficiency in PC3; read-out: IC50, survival of cancer cells
Procedure: (§1) PC3 (provided by Dr. Steven Balk's laboratory in Department of Medicine at Beth Israel Deaconess Medical Center), PANC02 and CRL2119 (provided by Dr. Pankaja Seth's laboratory in Department of Medicine at Beth Israel Deaconess Medical Center), A549 (ATCC) cell lines were cultured according to manufacturer's protocols. Briefly, PC3 were cultured in RPMI medium supplemented with 10% FBS (Atlanta). PANC-2, A549 and CRL2119 were cultured in DMEM High medium supplemented with 10% FBS (Atlanta). Human bronchial epithelial cells (BEC) were cultured in Airway Epithelial Cell Basal Medium with the Bronchial Epithelial cell growth kit (ATCC) according to manufacturer's protocol and used at passages 3-5.
(§2) Cells were seeded at 5×10^3 concentration in 96 well plates and treated with test compounds or DMSO (0.001-10 μM) for 72 hours. Culture medium was removed and cells were stained with crystal violet solution (Sigma-Aldrich) for 15 minutes while shaking at room temperature. Crystal violet was then removed and cells were repeatedly washed in water. Attached cells stained with crystal violet were dried and then resuspended in 10% acetic acid. Absorbance was measured at 562 nm. The intensity of staining corresponded directly to the number of live cells.

A549 cells = test: Invasion chambers (Transwell, Matrigel); conditions: serum chemoattractants, compared to untreated cells
Procedure: The invasion of A549 cells was measured using Transwell chambers (Chemicon, Millipore, Calif.) according to the manufacturer's protocol. Briefly, A549 cells were treated with test compounds at 1 μM in 500 μl of DMEM medium without FBS for 24 hours. Medium in the upper chamber was serum-free while medium in the lower chamber contained 10% FBS as a source of chemoattractants. Cells that passed through the Matrigel-coated membrane were stained and photographed after 24 hours of incubation. Absorbance was measured at 562 nm by ELISA reader after dissolving of stained cells in 10% acetic acid.

A549 = test: Cytoxicity / crystal violet staining, A549; conditions: Homo sapiens, 0.01-5 μM for 72 hours, n=4
PC3 = test: Cytoxicity / crystal violet staining, PC3; conditions: average of triplicates, % of apoptotic cells vs DMSO controls, N.A. = not active at 10 μM
Procedure: as §1, §2

STMN1 = STMN1 immunostaining and immunoblotting in PC3 cells; conditions: PC3 cells, 0.01, 0.1 and 1 μM; 30 minutes, 1 hour, 24 hours
Procedure: (§3) Immunofluorescence and immunostaining on cell lines and tumor samples were performed as described in Wegiel et al, Cancer research 2013, 73(23), 7009-21. Anti-mouse STMN1, anti-P (Ser10)-Histone H3, and α-tubulin antibody were obtained from Cell Signaling. β-actin antibody was obtained from Sigma-Aldrich. Cells were treated with Compound 6 (1 μM) or DMSO for 48 hours. After immunofluorescence staining, the number of P-Histone H3 was quantified per field of view at 40× magnification using Zeiss Axiovert Microscope.
Snap-frozen tissue samples were homogenized in ice-cold tissue lysis buffer (250 mM NaCl, 5 mM EDTA, 1% Triton X-100, 10 mM Tris-HCl; pH 7.5) containing the protease inhibitor cocktail Complete Mini (Roche). For co-immunoprecipitation, 200 μg protein lysates in RIPA buffer and the protease inhibitor cocktail were mixed with appropriate antibodies and 30 μl Protein A/G Plus-agarose beads (Santa Cruz Biotechnology) and then rotated for 1 hour at room temperature. The proteins were washed with RIPA buffer and eluted (95° C., 5 min in SDS loading buffer). Immunoblotting was performed as previously described in Chin et al., Proc. Natl. Acad. Sci. USA 2007, 104(12), 5109-14. Antibodies: P (Ser967)-ASK1 (Cell Signaling), Ask1 (Cell Signaling), P-STMN1 (Ser16) (Cell Signaling), STMN1 (Cell Signaling), 13-Actin (Sigma) were used at 1:1000 dilution.

PC3 cells [2] = test: Immunofluorescence of P-Histone H3 and α-tubulin in PC3 cells (siRNA STMN1 or control)
Procedure: as §3
(§4) siRNA against STMN1 and scramble siRNA were obtained from Darmacon (ONTARGET plus siRNA). PC3 cells were transiently transfected with siRNA against STMN1 or scramble siRNA using Lipofectamine 2000 (Invitrogen) as previously described in Wegiel et al., J. Biol. Chem. 2009, 7; 284(32):21369-78. Twenty four hours post-transfection, cells were split to 96 well plates and treated with test compounds for 72 hours. STMN1 levels were measured by immunoblotting to confirm successful knockdown.

[3] = tested on: PC3 cells transfected with siRNA against STMN1; test: Crystal violet staining of PC3 cells transfected with siRNA against STMN1; conditions: siRNA STMN1 vs control siRNA; 1 μM Compound 6, 1 μM Compound 7, 0.1 μM Compound 8, 72 hours
Procedure: as §2, §4

PC3 cells [4] = test: Annexin V staining; conditions: 24 hours
Procedure: PC3 cells were seeded at 1×10^5 concentration in 6 well plates 24 hours before experiment. Cells were treated with Compound 6 for 24 hours. Cells were harvested and apoptosis rate was measured using Annexin V-FITC staining according to manufacturer's protocol (BD Biosciences, San Jose, Calif.).

Cn1ccc2cc(/C=C3\CCc4ccc(F)cc4C3=O)ccc21 [Compound 6, (2E)-7-fluoro-2-[(1-methyl-1H-indol-5-yl)methylidene]-1,2,3,4-tetrahydronaphthalen-1-one]
IC50 [1]: 0.14 to 0.3 µM
invasion / migration through matrigel coated chambers (A549 cells): strongly inhibited invasion
IC50 (A549): 0.208 µM
Cytoxicity (% cell killing at 10 μM) PC3 (PC3): 49%
STMN1 level by immunoblotting (STMN1): very early (30 minutes to 1 hour) stabilization of STMN1
number of cells undergoing mitosis (P-Histone H3) and normal mitotic spindles (α-tubulin) (PC3 cells [2]; 1 μM): blocked number of cells undergoing mitosis
microtubule destabilization, aberrant mitotic spindle and P-Histone H3 positive cells in the absence of STMN1 (PC3 cells [2]; siRNA against STMN1, 1 μM): in part reversed
cell death in response to compound in the absence of STMN1 [3]: attenuated in the absence of STMN1
Annexin V-positive cells (PC3 cells [4]): increased number of Annexin V-positive cells

— patent publication US10512631B2, “Chalcone compounds” (Beth Israel Deaconess Medical Center, Inc., priority 2015, dated 2019)
